Data on one compound can be found in patent US20260070887A1 (Shenzhen Zhongge Biological Technology Co., Ltd., priority 2022, published 2026).

Series [1] concerns OVCAR-3 cells. The series is described as follows: OVCAR-3 cell proliferation (Cell Titer-Glo, 10 days). Particulars: Homo sapiens, OVCAR-3, 240 h. The format is cell-based, human. Summed up:
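IC50 was fitted by nonlinear regression of percent inhibition versus the 0.1% DMSO control. Luminescence was read with Cell Titer-Glo after 10 days of co-culture of logarithmic-phase cells (400/well) with compound at 0.12 nM–10 μM final, in medium with 20% fetal bovine serum and 0.01 mg/mL insulin.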

Series [2] in a line: PK study in ICR mice. In kind it is in vivo, mouse. As to conditions: both sexes, mouse, plasma, route and dose not given. In outline: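 Fasted ICR mice (3/group) dosed intravenously or by oral gavage; plasma sampled up to 24 h. Plasma levels measured by LC-MS/MS after protein precipitation. T½, AUC0-t, CL, Vss and F derived by noncompartmental analysis.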
Series [3] has as its target hERG channel (Homo sapiens (Human), UniProt Q12809). The series is described as follows: hERG manual patch clamp test. The format is cell-based. Here is the method: The cells used in this test were the HEK293 cell line transfected with hERG cDNA and stably expressing the hERG channel (#60187, supplied by BPS, passages P3-P23 for experimental studies). The cells were cultured in a medium containing the following components: MEM medium containing 10% (v/v) inactivated fetal calf serum, 1 mM sodium pyruvate, 500 μg/ml geneticin, 0.1 mM non-essential amino acids, and 100 U/m1 penicillin/streptomycin. HEK293 hERG cells were grown in a culture dish containing the above-mentioned medium, cultured in a 37° C., 5% CO2 incubator, and passaged approximately three times per week, with the cell fusion rate between 40% and 80%. 24 to 48 hours prior to electrophysiological experiments, HEK293 hERG cells were transferred to 0.05 mg/ml PDL-pretreated slides, seeded at a density of 1×10^4 cells per well in a 48-well plate, and grown in the same medium and under the same culture conditions. The density of HEK293 hERG cells on each circular slide needs to reach the requirement that most cells are independent and individual. The extracellular fluid components used in the hERG assay were as follows (mM): 145 NaCl, 4 KCl, 2 CaCl2, 1 MgCl2, 10 glucose, and 10 HEPES (pH adjusted to 7.40 with NaOH). The intracellular fluid components were as follows (mM): 130 KCl, 2 MgCl2, 5 EGTA, 10 HEPES and 5 Na2ATP (pH adjusted to 7.25 with KOH). […] Prior to the experiment, the compound was first serially diluted with DMSO to prepare stock solutions at 10, 3, 1, 0.3, and 0.1 mM, which were then further diluted with extracellular fluid to achieve the final test concentrations (in μM). The final concentration of DMSO in compound solutions at various concentrations was between 0.1% and 0.3%. All compound solutions are routinely sonicated for 5 to 10 min and shaken sufficiently to ensure complete dissolution of the compound, and all test solutions are mixed well by rotation for at least 10 min.
Electrophysiological tests were performed using a manual patch clamp system (HEKA EPC-10 signal amplifier and digital conversion system, HEKA Electronics, Germany) for the recording of whole cell currents. The specific test method was described as follows: Circular slides with […] hERG cells growing on the surface were placed in an electrophysiological recording chamber under an inverted microscope. The recording chamber was continuously perfused with extracellular fluid (at approximately 1 mL/min). The conventional whole-cell patch-clamp technique was employed for current recordings throughout the experiment. If not specified, the experiments were carried out at normal room temperature (about 25° C.). The cells were clamped at −80 mV. The cell clamp voltage was depolarized to +30 mV to activate the hERG potassium channel, and then clamped to −50 mV after 5 seconds to eliminate inactivation and produce a tail current. The peak tail current value was used as a value for the magnitude of the hERG current. The potassium current of hERG recorded in the above steps was stabilized by continuous extracellular fluid perfusion in the recording chamber, and the drug to be tested was continuously perfused until the inhibitory effect of the drug on hERG currents had stabilized. The coincidence of the most recent three consecutive current recording traces was typically taken as the criteria for determining whether steady-state conditions were achieved.
Dose-response curves of the test compounds were plotted with % hERG inhibition rate as the y-axis and test compound concentration as the x-axis, to calculate the IC50 values.

Molecules are shown by their SMILES.

Chain of hERG channel (Q12809 whole entry, the tested form may be a part): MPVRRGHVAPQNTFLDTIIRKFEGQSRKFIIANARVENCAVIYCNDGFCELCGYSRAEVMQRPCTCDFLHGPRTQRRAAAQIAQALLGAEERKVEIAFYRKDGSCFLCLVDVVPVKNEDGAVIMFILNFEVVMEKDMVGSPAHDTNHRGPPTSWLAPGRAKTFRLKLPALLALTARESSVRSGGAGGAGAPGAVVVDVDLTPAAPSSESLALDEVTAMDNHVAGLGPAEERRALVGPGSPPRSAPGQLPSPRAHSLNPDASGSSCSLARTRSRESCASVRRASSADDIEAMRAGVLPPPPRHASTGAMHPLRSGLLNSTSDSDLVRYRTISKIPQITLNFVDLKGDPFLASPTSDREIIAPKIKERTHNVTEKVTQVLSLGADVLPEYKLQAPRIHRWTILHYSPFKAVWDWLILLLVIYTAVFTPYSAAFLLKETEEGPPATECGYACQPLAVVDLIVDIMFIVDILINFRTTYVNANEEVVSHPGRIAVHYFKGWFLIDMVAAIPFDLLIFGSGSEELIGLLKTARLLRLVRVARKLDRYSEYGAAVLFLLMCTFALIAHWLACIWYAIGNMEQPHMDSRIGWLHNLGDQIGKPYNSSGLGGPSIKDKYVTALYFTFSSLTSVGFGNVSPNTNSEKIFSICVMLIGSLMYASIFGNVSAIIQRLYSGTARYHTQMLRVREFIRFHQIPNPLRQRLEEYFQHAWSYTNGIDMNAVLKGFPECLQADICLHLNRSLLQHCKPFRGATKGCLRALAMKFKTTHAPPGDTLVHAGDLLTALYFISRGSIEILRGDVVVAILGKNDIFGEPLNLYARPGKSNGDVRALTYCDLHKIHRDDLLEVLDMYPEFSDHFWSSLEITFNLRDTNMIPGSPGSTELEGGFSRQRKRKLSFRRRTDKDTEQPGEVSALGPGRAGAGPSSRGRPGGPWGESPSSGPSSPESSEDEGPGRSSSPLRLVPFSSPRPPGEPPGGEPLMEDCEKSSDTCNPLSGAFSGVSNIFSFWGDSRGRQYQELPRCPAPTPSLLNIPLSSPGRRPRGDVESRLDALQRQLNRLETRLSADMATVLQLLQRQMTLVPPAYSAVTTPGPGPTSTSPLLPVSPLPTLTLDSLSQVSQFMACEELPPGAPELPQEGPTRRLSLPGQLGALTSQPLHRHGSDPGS

Consider `COc1ccc(NC(=O)c2ccc(NS(=O)(=O)CCO)cc2N2CCC3(CC2)CC3)c2cc3n(c12)CCC(F)(F)C3` [Example 478, N-(8,8-difluoro-4-methoxy-6,7,8,9-tetrahydropyridino[1,2-a]indol-1-yl)-4-(2-hydroxyethylsulfonamido)-2-(6-azaspiro[2.5]octan-6-yl)benzamide], for which the 50% inhibitory concentration (IC50) (in general, the concentration at which inhibition is half-maximal) in series [1] was ≤ 0.05 µM; in series [3], 8 µM. The AUC (as a rule, the area under the concentration-time curve, a measure of exposure) in series [2] (read-out: AUC) was 48500 ng·h/mL. For the same compound, the Cmax (commonly the maximum level reached in the sampled fluid or tissue) in series [2] (read-out: Cmax) amounted to 6020 ng/mL.
